{"source": "ChEMBL document CHEMBL1201862", "about": "“PubChem BioAssay data set” (2004)", "key": {"[1]": {"target": "T1, Endoribonuclease toxin MazF (Escherichia coli K-12, UniProt P0AE70)", "T1 sequence (P0AE70 whole entry)": "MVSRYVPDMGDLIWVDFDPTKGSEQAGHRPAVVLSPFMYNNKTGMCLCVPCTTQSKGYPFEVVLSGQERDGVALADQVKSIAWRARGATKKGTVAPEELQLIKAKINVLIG", "test": "MazF toxin RNase activators, dose response, biochemical, fluorescence, single-stranded RNA substrate, uHTS hits (AID 588481)", "type": "functional"}, "[2]": {"target": "T1, Endoribonuclease toxin MazF", "test": "fluorescent RNA oligo signal without MazF, dose response, counter-screen for MazEF activator project, biochemical, fluorescence, single-stranded RNase substrate (AID 588502)", "type": "functional"}, "[3]": {"target": "26S proteasome non-ATPase regulatory subunit 14 (Homo sapiens, UniProt O00487)", "sequence (O00487 whole entry)": "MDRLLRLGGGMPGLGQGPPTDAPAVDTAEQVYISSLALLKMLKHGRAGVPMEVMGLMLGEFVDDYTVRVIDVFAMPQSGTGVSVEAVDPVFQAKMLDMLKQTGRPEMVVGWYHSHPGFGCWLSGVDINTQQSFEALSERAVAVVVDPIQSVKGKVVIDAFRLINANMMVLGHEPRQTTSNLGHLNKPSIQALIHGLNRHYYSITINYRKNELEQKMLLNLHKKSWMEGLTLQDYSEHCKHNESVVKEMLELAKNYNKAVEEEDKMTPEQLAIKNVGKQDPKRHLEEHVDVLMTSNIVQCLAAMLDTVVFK", "test": "inhibition of proteasome subunit RPN11 – biochemical, fluorescence polarization, uHTS hits, confirmation (AID 602368)", "type": "functional"}, "[4]": {"target": "72 kDa type IV collagenase (Homo sapiens, UniProt P08253)", "sequence (P08253 whole entry)": "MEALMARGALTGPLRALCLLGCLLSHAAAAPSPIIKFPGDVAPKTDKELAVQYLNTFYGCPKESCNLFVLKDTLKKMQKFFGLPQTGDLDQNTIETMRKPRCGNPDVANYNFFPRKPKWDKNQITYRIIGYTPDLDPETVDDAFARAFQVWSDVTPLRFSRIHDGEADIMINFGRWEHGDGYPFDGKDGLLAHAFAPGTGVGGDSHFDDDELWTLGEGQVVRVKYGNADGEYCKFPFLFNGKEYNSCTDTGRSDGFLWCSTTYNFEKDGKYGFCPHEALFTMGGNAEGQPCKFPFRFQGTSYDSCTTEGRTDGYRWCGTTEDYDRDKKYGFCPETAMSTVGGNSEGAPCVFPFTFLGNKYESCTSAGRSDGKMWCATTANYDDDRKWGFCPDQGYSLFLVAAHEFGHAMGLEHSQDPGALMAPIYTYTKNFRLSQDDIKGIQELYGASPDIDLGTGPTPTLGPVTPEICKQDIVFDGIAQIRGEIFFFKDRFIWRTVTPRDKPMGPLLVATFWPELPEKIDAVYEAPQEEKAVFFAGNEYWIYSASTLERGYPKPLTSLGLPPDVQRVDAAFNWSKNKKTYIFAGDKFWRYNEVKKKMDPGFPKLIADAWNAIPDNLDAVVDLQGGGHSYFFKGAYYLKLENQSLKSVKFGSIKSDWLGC", "test": "Dose Response validation of uHTS RPN11 inhibitor hits using a MMP-2 Fluorescence assay.", "type": "functional"}, "Prothrombin": {"target": "Prothrombin (Bos taurus, UniProt P00735)", "test": "thrombin inhibition, dose response, biochemical, fluorescence polarization, uHTS hits (AID 602369)", "type": "functional"}, "Melanocortin receptor 4 [5]": {"target": "T2, Melanocortin receptor 4 (Homo sapiens, UniProt P32245)", "T2 sequence (P32245 whole entry)": "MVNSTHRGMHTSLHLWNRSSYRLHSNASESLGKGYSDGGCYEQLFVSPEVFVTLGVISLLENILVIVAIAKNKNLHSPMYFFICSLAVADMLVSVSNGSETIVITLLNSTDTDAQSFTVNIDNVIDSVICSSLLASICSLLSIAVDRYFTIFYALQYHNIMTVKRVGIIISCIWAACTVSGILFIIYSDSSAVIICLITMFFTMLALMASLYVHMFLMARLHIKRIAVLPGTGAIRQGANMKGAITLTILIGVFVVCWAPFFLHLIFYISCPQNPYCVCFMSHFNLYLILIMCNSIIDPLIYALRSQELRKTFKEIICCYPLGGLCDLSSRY", "type": "functional, cell-based"}, "[6]": {"test": "control 3'UTR Renilla luciferase suppression, dose response, counter-screen for Shn3 inhibitor project, cell-based, Clone20-Shn3RL, cherry-picked (AID 624133)", "type": "functional"}, "[7]": {"test": "Shn3 3'UTR reporter inhibitors, dose response, cell-based, Clone20 osteoblasts, firefly luciferase, cherry-picked (AID 624132)", "type": "functional"}, "[8]": {"test": "HepG2 cell cytotoxicity, dose response, cytotoxicity control for Shn3 inhibitor project, CellTiter-Glo, cherry-picked (AID 624134)", "type": "functional, cell-based"}, "[9]": {"test": "inhibitors of intracellular T. cruzi replication, confirmation, NIH3T3 host cells, beta-gal luminescence (AID 2044);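 note: luminescent beta-galactosidase reporter signal from transgenic T. cruzi replicating inside host cells; inhibitors lower the luminescence signal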", "type": "functional, cell-based"}, "Protein Wnt-3a": {"target": "Protein Wnt-3a (Mus musculus, UniProt P27467)", "sequence (P27467 whole entry)": "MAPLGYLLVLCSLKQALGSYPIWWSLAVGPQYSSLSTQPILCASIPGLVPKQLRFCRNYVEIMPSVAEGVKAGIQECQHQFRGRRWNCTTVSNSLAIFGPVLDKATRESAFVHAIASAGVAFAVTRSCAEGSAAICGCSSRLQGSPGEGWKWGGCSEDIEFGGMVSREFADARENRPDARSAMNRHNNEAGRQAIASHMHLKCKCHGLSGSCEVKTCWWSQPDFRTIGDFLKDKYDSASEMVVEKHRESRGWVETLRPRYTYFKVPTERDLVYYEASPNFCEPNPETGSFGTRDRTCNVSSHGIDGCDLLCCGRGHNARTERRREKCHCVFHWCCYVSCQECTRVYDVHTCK", "test": "Wnt3a-driven reporter signaling inhibition, dose response, selectivity assay for Gli-SUFU antagonist project, Wnt-LIGHT cells, luminescence (AID 651570);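 note: Wnt-LIGHT reporter cells stimulated with conditioned medium from Wnt3a-producing cells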", "type": "functional", "settings": "read-out: IC50_Mean"}, "[10]": {"test": "cytotoxicity toward NIH3T3 fibroblasts, dose response, counter-screen, cell-based, ATP luminescence, mouse fibroblasts (AID 2010);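 note: cells exposed to compound for about 90 hours before reading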", "type": "functional"}, "[11]": {"test": "nonselective inhibitors of cellular cAMP signaling, dose response, counter-screen for MC4R biased antagonist project, cell-based, TR-FRET cAMP detection (AID 602305);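 note: U2OS cells stimulated with forskolin near its EC80 as the cAMP inducer; potency is for inhibition of forskolin-stimulated cAMP signaling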", "type": "functional"}, "[12]": {"target": "T3, Carboxy-terminal domain RNA polymerase II polypeptide A small phosphatase 1 (Homo sapiens, UniProt Q9GZU7)", "T3 sequence (Q9GZU7 whole entry)": "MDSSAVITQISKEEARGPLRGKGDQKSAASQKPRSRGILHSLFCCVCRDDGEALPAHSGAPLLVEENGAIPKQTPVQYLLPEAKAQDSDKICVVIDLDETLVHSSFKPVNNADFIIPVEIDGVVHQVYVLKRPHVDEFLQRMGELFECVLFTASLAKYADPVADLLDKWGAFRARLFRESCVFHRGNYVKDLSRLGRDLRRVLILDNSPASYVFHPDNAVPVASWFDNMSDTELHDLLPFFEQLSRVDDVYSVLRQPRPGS", "test": "inhibitors of CTDSP1, concentration-response testing, biochemical assay, absorbance-based, actives from ultra-high-throughput screening (AID 540297)", "type": "functional"}, "Melanocortin receptor 4 [13]": {"target": "T2, Melanocortin receptor 4", "test": "MC4R antagonist potency on cAMP, dose response, cell-based, TR-FRET, biased antagonists (AID 602298);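 note: antagonist potency against agonist-stimulated cAMP production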", "type": "functional"}, "[14]": {"test": "intracellular Trypanosoma cruzi inhibitors in host cells – cell-based, plate reader, cherry-pick samples, set 3, dose response (AID 651818);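 note: compounds incubated with infected cells for about four days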", "type": "functional"}, "[15]": {"target": "T4, Sentrin-specific protease 1 (Homo sapiens, UniProt Q9P0U3)", "T4 sequence (Q9P0U3 whole entry)": "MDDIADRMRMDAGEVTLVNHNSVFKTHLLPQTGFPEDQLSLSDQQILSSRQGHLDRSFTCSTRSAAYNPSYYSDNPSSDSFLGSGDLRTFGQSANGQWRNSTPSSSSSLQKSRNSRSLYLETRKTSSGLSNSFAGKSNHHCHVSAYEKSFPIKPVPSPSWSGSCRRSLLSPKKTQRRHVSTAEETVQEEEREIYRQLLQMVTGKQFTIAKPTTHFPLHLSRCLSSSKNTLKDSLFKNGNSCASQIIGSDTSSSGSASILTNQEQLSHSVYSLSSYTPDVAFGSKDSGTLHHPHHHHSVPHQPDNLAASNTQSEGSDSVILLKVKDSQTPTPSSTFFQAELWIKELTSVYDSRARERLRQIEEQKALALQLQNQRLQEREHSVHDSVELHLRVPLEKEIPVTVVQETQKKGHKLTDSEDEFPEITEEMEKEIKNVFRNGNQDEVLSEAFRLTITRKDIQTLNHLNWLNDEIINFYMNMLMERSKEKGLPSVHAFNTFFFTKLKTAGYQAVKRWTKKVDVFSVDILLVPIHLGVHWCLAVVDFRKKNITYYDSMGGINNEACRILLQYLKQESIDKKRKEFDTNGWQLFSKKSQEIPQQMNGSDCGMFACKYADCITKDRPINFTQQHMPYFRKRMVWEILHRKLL", "test": "potency of human SENP1 inhibitors, dose response, biochemical, kinetic FRET (AID 651697)", "type": "functional", "settings": "read-out: IC50_Mean"}, "[16]": {"target": "T4, Sentrin-specific protease 1", "test": "Dose response confirmation of small molecule inhibitors of the catalytic domain of the SUMO protease, SENP1 in a FRET assay.", "type": "functional", "settings": "read-out: IC50_Mean"}, "[17]": {"target": "T5, Mitochondrial peptide methionine sulfoxide reductase (Bos taurus, UniProt P54149)", "T5 sequence (P54149 whole entry)": "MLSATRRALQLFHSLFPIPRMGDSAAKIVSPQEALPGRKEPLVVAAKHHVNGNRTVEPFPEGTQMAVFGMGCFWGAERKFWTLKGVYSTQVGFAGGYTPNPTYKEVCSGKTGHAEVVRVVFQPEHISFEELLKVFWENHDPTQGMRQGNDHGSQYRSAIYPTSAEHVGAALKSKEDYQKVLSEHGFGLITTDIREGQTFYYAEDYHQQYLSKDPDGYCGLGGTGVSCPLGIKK", "type": "functional"}}, "note": "Active and inactive are the calls of the source.", "data": [{"smiles": "Nc1cc(SCc2ccc(Cl)cc2Cl)ncn1", "values": [{"measurement": "EC50", "setting": "[1]", "result": "> 99 µM (inactive)"}, {"measurement": "EC50", "setting": "[2]", "result": "> 99 µM (inactive)"}]}, {"smiles": "COc1ccc(Nc2nc3ccc(C)cc3cc2C#N)c(OC)c1", "values": [{"measurement": "EC50", "setting": "[1]", "result": "34.1 µM (inactive)"}, {"measurement": "EC50", "setting": "[2]", "result": "14.2 µM (active)"}]}, {"smiles": "COc1ccccc1Cc1c(-c2cccc(Br)c2)nc2ccc(Cl)cn12", "values": [{"measurement": "IC50", "setting": "[3]", "result": "8.48 µM (active)"}, {"measurement": "IC50", "setting": "[4]", "result": "> 100 µM (inactive)"}, {"measurement": "IC50", "setting": "Prothrombin", "result": "13 µM (active)"}]}, {"smiles": "O=C1OC(c2ccccc2)(c2ccc(O)cc2)c2ccccc21", "note": "(stereo unspecified)", "values": [{"measurement": "EC50", "setting": "Melanocortin receptor 4 [5]", "result": "> 89.2 µM (inactive)"}]}, {"smiles": "CCn1/c(=N\\C(=O)CS(=O)(=O)c2ccccc2)sc2cccc(OC)c21", "values": [{"measurement": "AC50", "setting": "[6]", "result": "1.58 µM (active)"}, {"measurement": "AC50", "setting": "[7]", "result": "1.68 µM (active)"}, {"measurement": "AC50", "setting": "[8]", "result": "> 70 µM (inactive)"}, {"measurement": "EC50", "setting": "[9]", "result": "1.74 µM (active)"}, {"measurement": "IC50", "setting": "Protein Wnt-3a", "result": "1.03 µM (active)"}, {"measurement": "EC50", "setting": "[10]", "result": "> 60 µM (not active)"}]}, {"smiles": "C=CCn1/c(=N/C(=O)c2sc3ccccc3c2Cl)sc2cc(S(N)(=O)=O)ccc21", "values": [{"measurement": "IC50", "setting": "[3]", "result": "12.5 µM (active)"}, {"measurement": "IC50", "setting": "[11]", "result": "> 64.6 µM (inactive)"}, {"measurement": "IC50", "setting": "[12]", "result": "4.39 µM (active)"}, {"measurement": "IC50", "setting": "[4]", "result": "> 100 µM (inactive)"}, {"measurement": "IC50", "setting": "Prothrombin", "result": "> 100 µM (inactive)"}, {"measurement": "IC50", "setting": "Melanocortin receptor 4 [13]", "result": "30.7 µM (inactive)"}]}, {"smiles": "Cc1cc(O)cc(O)c1/C=N/Cc1ccco1", "values": [{"measurement": "EC50", "setting": "[1]", "result": "> 99 µM (inactive)"}, {"measurement": "EC50", "setting": "[2]", "result": "21.9 µM (inactive)"}]}, {"smiles": "CC(C)NC(=O)Nc1cccc2c1O[C@H](CN(C)Cc1ccc(C(=O)Nc3ccccc3N)cc1)[C@H](C)CN([C@@H](C)CO)C2=O", "values": [{"measurement": "AC50", "setting": "[14]", "result": "2.95 µM (active)"}]}, {"smiles": "CC(=O)Nc1cc(-c2ccc(N3CCN(C)CC3)cc2)cn2c(-c3ccccc3)cnc12", "values": [{"measurement": "IC50", "setting": "[15]", "result": "24.1 µM (inactive)"}, {"measurement": "IC50", "setting": "[16]", "result": "12.2 µM (active)"}]}, {"smiles": "C/C(CC(C)C)=N/Nc1ccc([N+](=O)[O-])cc1[N+](=O)[O-]", "values": [{"measurement": "IC50", "setting": "[17]", "result": "155 µM (inactive)"}]}]}
